Data on 13 compounds can be found in US20220389061A1, “IMMUNOMODULATORS” (priority 2019, published 2022).

This test has as its target T1, PD-1/PD-L1 (Homo sapiens, UniProt Q9NZQ7).
T1 construct: TVMV protease site linker (C); made in house; host or cells: HEK293T cells
The experiment in a line: PD-1/PD-L1 Homogenous Time-Resolved Fluorescence (HTRF) binding assay. Summed up: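 HTRF read-out using europium cryptate anti-Ig (1 nM) and APC anti-His (20 nM) on extracellular-domain fusion proteins in dPBS/0.1% BSA/0.05% Tween-20. Inhibitor first incubated 15 min with 10 nM PD-L1-His, followed by 20 nM PD-1-Ig for another 15 min.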
Background: TR-FRET usually uses a lanthanide donor and a delayed reading to cut background.

Setting [1] is: PD-L1-His 10 nM pre-incubated with inhibitor, PD-1-Ig 20 nM, read-out: HTRF IC50.

Like-named read-outs stand apart in the source and are kept apart here. Starred links: 1 amine or outer side, 2 acyl side, 3 side chain; linkers in the order of their positions; H or OH if unused. Positions of bridges follow the written chain, without caps; N, C: chain ends. Non-standard residues stand in square brackets, D forms with d. Residues, ends and D or L forms follow the SMILES beside them. Groups on a side chain read outwards from the residue. *: point of attachment. Trp(1-CH2COOH) = N[C@@H](Cc1cn(CC(=O)O)c2ccccc12)C(=O)O; NH(benzothiophen-5-yl) = c1cc2cc(N*)ccc2s1; Benzofuran(2-CO) = O=C(c1cc2ccccc2o1)*; X8 = NC(=O)c1c[nH]c2c(NC(=S)*)cccc12; X31 = S=C(Nc1cccc2c(Cl)c[nH]c12)*; Hyp = O=C(O)[C@@H]1C[C@@H](O)CN1; X14 = Cc1c[nH]c2c(NC(=S)*)cccc12; NMeNle = CCCC[C@H](NC)C(=O)O; X12 = S=C(Nc1ccc2ccccc2c1)*; X20 = O=C(Oc1ccc2ccccc2c1)*; X5 = S=C(Nc1cccc2ccccc12)*; X59 = S=C(Nc1ccc2nsnc2c1)*; NMeA = CN[C@@H](C)C(=O)O; Dab = NCC[C@H](N)C(=O)O; X45 = c1ccc2sc(N*)cc2c1; Dap = NC[C@H](N)C(=O)O; CO = O=C([*:1])[*:2]

The IC50 is the concentration at which inhibition is half-maximal.

T1 sequence (Q9NZQ7 18-239): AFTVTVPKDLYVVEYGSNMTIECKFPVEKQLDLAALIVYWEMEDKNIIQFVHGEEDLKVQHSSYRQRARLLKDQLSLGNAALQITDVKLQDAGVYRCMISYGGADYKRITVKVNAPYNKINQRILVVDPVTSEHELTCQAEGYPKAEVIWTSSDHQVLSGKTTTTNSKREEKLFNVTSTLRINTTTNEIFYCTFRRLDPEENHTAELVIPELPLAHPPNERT

Turning to `CCCC[C@H]1C(=O)N(C)[C@@H](CCCC)C(=O)N[C@@H](CC(C)C)C(=O)N[C@H](C(=O)NCC(N)=O)CSCC(=O)N[C@@H](Cc2ccc(O)cc2)C(=O)N(C)[C@@H](C)C(=O)N[C@@H](CC(N)=O)C(=O)N2CCC[C@H]2C(=O)N[C@@H](CNC(=S)Nc2cccc3c(C)c[nH]c23)C(=O)N[C@@H](CC(C)C)C(=O)N2C[C@H](O)C[C@H]2C(=O)N[C@@H](Cc2c[nH]c3ccccc23)C(=O)N[C@@H](CCNC(=S)Nc2cccc3c(C)c[nH]c23)C(=O)N[C@@H](Cc2cn(CC(=O)O)c3ccccc23)C(=O)N1C` [Example 3025] ({CH2CO}-Y[NMeA]NP[Dap](X14)L[Hyp]W[Dab](X14)[Trp(1-CH2COOH)][NMeNle][NMeNle]LCG-NH2; thioether N-14), the IC50 under setting [1] worked out at 2.9 nM.
For the compound `CCCC[C@H]1C(=O)N(C)[C@@H](CCCC)C(=O)N[C@@H](CC(C)C)C(=O)N[C@H](C(=O)NCC(N)=O)CSCC(=O)N[C@@H](Cc2ccc(O)cc2)C(=O)N(C)[C@@H](C)C(=O)N[C@@H](CC(N)=O)C(=O)N2CCC[C@H]2C(=O)N[C@@H](CNC(=O)Nc2ccc3sccc3c2)C(=O)N[C@@H](CC(C)C)C(=O)N2C[C@H](O)C[C@H]2C(=O)N[C@@H](Cc2c[nH]c3ccccc23)C(=O)N[C@@H](CCN)C(=O)N[C@@H](Cc2cn(CC(=O)O)c3ccccc23)C(=O)N1C` [Example 3026] ({CH2CO}-Y[NMeA]NP[Dap]([CO-NH(benzothiophen-5-yl)])L[Hyp]W[Dab][Trp(1-CH2COOH)][NMeNle][NMeNle]LCG-NH2; thioether N-14), under setting [1], the IC50 amounted to 3.3 nM.
Consider `CCCC[C@H]1C(=O)N(C)[C@@H](CCCC)C(=O)N[C@@H](CC(C)C)C(=O)N[C@H](C(=O)NCC(N)=O)CSCC(=O)N[C@@H](Cc2ccc(O)cc2)C(=O)N(C)[C@@H](C)C(=O)N[C@@H](CC(N)=O)C(=O)N2CCC[C@H]2C(=O)N[C@@H](CN)C(=O)N[C@@H](CC(C)C)C(=O)N2C[C@H](O)C[C@H]2C(=O)N[C@@H](Cc2c[nH]c3ccccc23)C(=O)N[C@@H](CCNC(=S)Nc2cccc3c(C(N)=O)c[nH]c23)C(=O)N[C@@H](Cc2cn(CC(=O)O)c3ccccc23)C(=O)N1C` [Example 3027] ({CH2CO}-Y[NMeA]NP[Dap]L[Hyp]W[Dab](X8)[Trp(1-CH2COOH)][NMeNle][NMeNle]LCG-NH2; thioether N-14), for which the IC50 under setting [1] was determined as 3.9 nM.
Still for that read-out and setting: the value for `CCCC[C@H]1C(=O)N(C)[C@@H](CCCC)C(=O)N[C@@H](CC(C)C)C(=O)N[C@H](C(=O)NCC(N)=O)CSCC(=O)N[C@@H](Cc2ccc(O)cc2)C(=O)N(C)[C@@H](C)C(=O)N[C@@H](CC(N)=O)C(=O)N2CCC[C@H]2C(=O)N[C@@H](CNC(=S)Nc2ccc3ccccc3c2)C(=O)N[C@@H](CC(C)C)C(=O)N2C[C@H](O)C[C@H]2C(=O)N[C@@H](Cc2c[nH]c3ccccc23)C(=O)N[C@@H](CCN)C(=O)N[C@@H](Cc2cn(CC(=O)O)c3ccccc23)C(=O)N1C` [Example 3028] ({CH2CO}-Y[NMeA]NP[Dap](X12)L[Hyp]W[Dab][Trp(1-CH2COOH)][NMeNle][NMeNle]LCG-NH2; thioether N-14) was 0.6 nM; that for `CCCC[C@H]1C(=O)N(C)[C@@H](CCCC)C(=O)N[C@@H](CC(C)C)C(=O)N[C@H](C(=O)NCC(N)=O)CSCC(=O)N[C@@H](Cc2ccc(O)cc2)C(=O)N(C)[C@@H](C)C(=O)N[C@@H](CC(N)=O)C(=O)N2CCC[C@H]2C(=O)N[C@@H](CN)C(=O)N[C@@H](CC(C)C)C(=O)N2C[C@H](O)C[C@H]2C(=O)N[C@@H](Cc2c[nH]c3ccccc23)C(=O)N[C@@H](CCNC(=S)Nc2cccc3ccccc23)C(=O)N[C@@H](Cc2cn(CC(=O)O)c3ccccc23)C(=O)N1C` [Example 3029] ({CH2CO}-Y[NMeA]NP[Dap]L[Hyp]W[Dab](X5)[Trp(1-CH2COOH)][NMeNle][NMeNle]LCG-NH2; thioether N-14) was 0.1 nM; that for `CCCC[C@H]1C(=O)N(C)[C@@H](CCCC)C(=O)N[C@@H](CC(C)C)C(=O)N[C@H](C(=O)NCC(N)=O)CSCC(=O)N[C@@H](Cc2ccc(O)cc2)C(=O)N(C)[C@@H](C)C(=O)N[C@@H](CC(N)=O)C(=O)N2CCC[C@H]2C(=O)N[C@@H](CNC(=S)Nc2ccc3nsnc3c2)C(=O)N[C@@H](CC(C)C)C(=O)N2C[C@H](O)C[C@H]2C(=O)N[C@@H](Cc2c[nH]c3ccccc23)C(=O)N[C@@H](CCN)C(=O)N[C@@H](Cc2cn(CC(=O)O)c3ccccc23)C(=O)N1C` [Example 3030] ({CH2CO}-Y[NMeA]NP[Dap](X59)L[Hyp]W[Dab][Trp(1-CH2COOH)][NMeNle][NMeNle]LCG-NH2; thioether N-14) was 3 nM.
For the compound `CCCC[C@H]1C(=O)N(C)[C@@H](CCCC)C(=O)N[C@@H](CC(C)C)C(=O)N[C@H](C(=O)NCC(N)=O)CSCC(=O)N[C@@H](Cc2ccc(O)cc2)C(=O)N(C)[C@@H](C)C(=O)N[C@@H](CC(N)=O)C(=O)N2CCC[C@H]2C(=O)N[C@@H](CN)C(=O)N[C@@H](CC(C)C)C(=O)N2C[C@H](O)C[C@H]2C(=O)N[C@@H](Cc2c[nH]c3ccccc23)C(=O)N[C@@H](CCNC(=S)Nc2cccc3c(Cl)c[nH]c23)C(=O)N[C@@H](Cc2cn(CC(=O)O)c3ccccc23)C(=O)N1C` [Example 3031] ({CH2CO}-Y[NMeA]NP[Dap]L[Hyp]W[Dab](X31)[Trp(1-CH2COOH)][NMeNle][NMeNle]LCG-NH2; thioether N-14), the concentration for half-maximal inhibition (IC50) under setting [1] was found to be 3.1 nM.
As to `CCCC[C@H]1C(=O)N(C)[C@@H](CCCC)C(=O)N[C@@H](CC(C)C)C(=O)N[C@H](C(=O)NCC(N)=O)CSCC(=O)N[C@@H](Cc2ccc(O)cc2)C(=O)N(C)[C@@H](C)C(=O)N[C@@H](CC(N)=O)C(=O)N2CCC[C@H]2C(=O)N[C@@H](CNC(=O)Nc2cc3ccccc3s2)C(=O)N[C@@H](CC(C)C)C(=O)N2C[C@H](O)C[C@H]2C(=O)N[C@@H](Cc2c[nH]c3ccccc23)C(=O)N[C@@H](CCN)C(=O)N[C@@H](Cc2cn(CC(=O)O)c3ccccc23)C(=O)N1C` [Example 3032] ({CH2CO}-Y[NMeA]NP[Dap]([CO-X45])L[Hyp]W[Dab][Trp(1-CH2COOH)][NMeNle][NMeNle]LCG-NH2; thioether N-14), the IC50 under setting [1] is 9.2 nM.
The same measure, in the same setting: the value for `CCCC[C@H]1C(=O)N(C)[C@@H](CCCC)C(=O)N[C@@H](CC(C)C)C(=O)N[C@H](C(=O)NCC(N)=O)CSCC(=O)N[C@@H](Cc2ccc(O)cc2)C(=O)N(C)[C@@H](C)C(=O)N[C@@H](CC(N)=O)C(=O)N2CCC[C@H]2C(=O)N[C@@H](CNC(=S)Nc2cccc3ccccc23)C(=O)N[C@@H](CC(C)C)C(=O)N2C[C@H](O)C[C@H]2C(=O)N[C@@H](Cc2c[nH]c3ccccc23)C(=O)N[C@@H](CCNC(=S)Nc2cccc3ccccc23)C(=O)N[C@@H](Cc2cn(CC(=O)O)c3ccccc23)C(=O)N1C` [Example 3033] ({CH2CO}-Y[NMeA]NP[Dap](X5)L[Hyp]W[Dab](X5)[Trp(1-CH2COOH)][NMeNle][NMeNle]LCG-NH2; thioether N-14) was 1.5 nM; that for `CCCC[C@H]1C(=O)N(C)[C@@H](CCCC)C(=O)N[C@@H](CC(C)C)C(=O)N[C@H](C(=O)NCC(N)=O)CSCC(=O)N[C@@H](Cc2ccc(O)cc2)C(=O)N(C)[C@@H](C)C(=O)N[C@@H](CC(N)=O)C(=O)N2CCC[C@H]2C(=O)N[C@@H](CNC(=O)c2cc3ccccc3o2)C(=O)N[C@@H](CC(C)C)C(=O)N2C[C@H](O)C[C@H]2C(=O)N[C@@H](Cc2c[nH]c3ccccc23)C(=O)N[C@@H](CCN)C(=O)N[C@@H](Cc2cn(CC(=O)O)c3ccccc23)C(=O)N1C` [Example 3034] ({CH2CO}-Y[NMeA]NP[Dap](Benzofuran(2-CO))L[Hyp]W[Dab][Trp(1-CH2COOH)][NMeNle][NMeNle]LCG-NH2; thioether N-14) was 3.2 nM; that for `CCCC[C@H]1C(=O)N(C)[C@@H](CCCC)C(=O)N[C@@H](CC(C)C)C(=O)N[C@H](C(=O)NCC(N)=O)CSCC(=O)N[C@@H](Cc2ccc(O)cc2)C(=O)N(C)[C@@H](C)C(=O)N[C@@H](CC(N)=O)C(=O)N2CCC[C@H]2C(=O)N[C@@H](CNC(=O)c2cc3ccccc3o2)C(=O)N[C@@H](CC(C)C)C(=O)N2C[C@H](O)C[C@H]2C(=O)N[C@@H](Cc2c[nH]c3ccccc23)C(=O)N[C@@H](CCNC(=O)c2cc3ccccc3o2)C(=O)N[C@@H](Cc2cn(CC(=O)O)c3ccccc23)C(=O)N1C` [Example 3036] ({CH2CO}-Y[NMeA]NP[Dap](Benzofuran(2-CO))L[Hyp]W[Dab](Benzofuran(2-CO))[Trp(1-CH2COOH)][NMeNle][NMeNle]LCG-NH2; thioether N-14) was 2.7 nM.
For the compound `CCCC[C@H]1C(=O)N(C)[C@@H](CCCC)C(=O)N[C@@H](CC(C)C)C(=O)N[C@H](C(=O)NCC(N)=O)CSCC(=O)N[C@@H](Cc2ccc(O)cc2)C(=O)N(C)[C@@H](C)C(=O)N[C@@H](CC(N)=O)C(=O)N2CCC[C@H]2C(=O)N[C@@H](CNC(=O)Oc2ccc3ccccc3c2)C(=O)N[C@@H](CC(C)C)C(=O)N2C[C@H](O)C[C@H]2C(=O)N[C@@H](Cc2c[nH]c3ccccc23)C(=O)N[C@@H](CCNC(=O)Oc2ccc3ccccc3c2)C(=O)N[C@@H](Cc2cn(CC(=O)O)c3ccccc23)C(=O)N1C` [Example 3037] ({CH2CO}-Y[NMeA]NP[Dap](X20)L[Hyp]W[Dab](X20)[Trp(1-CH2COOH)][NMeNle][NMeNle]LCG-NH2; thioether N-14), the IC50 was 5 nM.
For `CCCC[C@H]1C(=O)N(C)[C@@H](CCCC)C(=O)N[C@@H](CC(C)C)C(=O)N[C@H](C(=O)NCC(N)=O)CSCC(=O)N[C@@H](Cc2ccc(O)cc2)C(=O)N(C)[C@@H](C)C(=O)N[C@@H](CC(N)=O)C(=O)N2CCC[C@H]2C(=O)N[C@@H](CN)C(=O)N[C@@H](CC(C)C)C(=O)N2C[C@H](O)C[C@H]2C(=O)N[C@@H](Cc2c[nH]c3ccccc23)C(=O)N[C@@H](CCNC(=O)Nc2ccc3sccc3c2)C(=O)N[C@@H](Cc2cn(CC(=O)O)c3ccccc23)C(=O)N1C` [Example 3038] ({CH2CO}-Y[NMeA]NP[Dap]L[Hyp]W[Dab]([CO-NH(benzothiophen-5-yl)])[Trp(1-CH2COOH)][NMeNle][NMeNle]LCG-NH2; thioether N-14), under setting [1], the IC50 turned out to be 5.3 nM.
